Source: article PMC9516332 (Frontiers in Oncology, 2022)
Read-outs that look alike come from different tables or passages of the source.

Tested on: 134 cancer cell lines
Experiment: Cell viability assay (ATPlite, 72 hours), IC50 on cancer cell line panel

Question: Which results are given for `CC(C)(C)c1nc(-c2cccc(NS(=O)(=O)c3c(F)cccc3F)c2F)c(-c2ccnc(N)n2)s1` [dabrafenib]?
Answer: IC50 (HEC-6, read-out: IC50 in cell proliferation assay, HEC-6 cell line (EGFR p.A289V)): > 10 µM; IC50 (Homo sapiens, 769-P, read-out: IC50 in cell proliferation assay, cell line 769-P): 1.05 µM; IC50 (Homo sapiens, 786-0, read-out: IC50 in cell proliferation assay, cell line 786-O): 1.69 µM; IC50 (Homo sapiens, A 172, read-out: IC50 in cell proliferation assay, cell line A-172): > 10 µM; IC50 (Homo sapiens, A204, read-out: IC50 in cell proliferation assay, cell line A-204): 2 µM; IC50 (Homo sapiens, A498, read-out: IC50 in cell proliferation assay, cell line A-498): 0.75 µM; IC50 (Homo sapiens, A549, read-out: IC50 in cell proliferation assay, cell line A-549): 2.65 µM; IC50 (Homo sapiens, A704, read-out: IC50 in cell proliferation assay, cell line A-704): 0.822 µM; IC50 (Homo sapiens, A-375, read-out: IC50 in cell proliferation assay, cell line A-375 (BRAF p.V600E)): 0.071 µM; IC50 (Homo sapiens, A-427, read-out: IC50 in cell proliferation assay, cell line A-427): 2.24 µM; IC50 (Homo sapiens, ACHN, read-out: IC50 in cell proliferation assay, cell line ACHN): 0.598 µM; IC50 (Homo sapiens, AN3-CA, read-out: IC50 in cell proliferation assay, cell line AN3-CA (FGFR2 p.N549K)): 2.62 µM; IC50 (Homo sapiens, ASPC1, read-out: IC50 in cell proliferation assay, cell line AsPC-1): > 10 µM; IC50 (Homo sapiens, AU565, read-out: IC50 in cell proliferation assay, cell line AU565 (ERBB2 amplification)): 0.981 µM; IC50 (Homo sapiens, BT-20, read-out: IC50 in cell proliferation assay, cell line BT-20): > 10 µM; IC50 (Homo sapiens, BT-474, read-out: IC50 in cell proliferation assay, cell line BT-474 (ERBB2 amplification)): > 10 µM; IC50 (Homo sapiens, BT-549, read-out: IC50 in cell proliferation assay, cell line BT-549): 1.53 µM; IC50 (Homo sapiens, BXPC-3, read-out: IC50 in cell proliferation assay, cell line BxPC-3): 0.681 µM; IC50 (Homo sapiens, C-33-A, read-out: IC50 in cell proliferation assay, cell line C-33 A): > 10 µM; IC50 (Homo sapiens, CAL-27, read-out: IC50 in cell proliferation assay, cell line CAL-27): > 10 µM; IC50 (Homo sapiens, CCF-STTG1, read-out: IC50 in cell proliferation assay, cell line CCF-STTG1): > 10 µM; IC50 (Homo sapiens, CCRF-CEM, read-out: IC50 in cell proliferation assay, cell line CCRF-CEM): 1.59 µM; IC50 (Homo sapiens, COLO 205, read-out: IC50 in cell proliferation assay, cell line COLO 205 (BRAF p.V600E)): 0.017 µM; IC50 (Homo sapiens, COLO-829, read-out: IC50 in cell proliferation assay, cell line COLO 829 (BRAF p.V600E)): 0.044 µM; IC50 (Homo sapiens, DLD-1, read-out: IC50 in cell proliferation assay, cell line DLD-1): 1.07 µM; IC50 (Homo sapiens, DU-4475, read-out: IC50 in cell proliferation assay, cell line DU4475 (BRAF p.V600E)): 0.055 µM; IC50 (Homo sapiens, Daoy, read-out: IC50 in cell proliferation assay, cell line Daoy): 0.919 µM; IC50 (Homo sapiens, DoTc2-4510, read-out: IC50 in cell proliferation assay, cell line DoTc2 4510): > 10 µM; IC50 (Homo sapiens, EOL1, read-out: IC50 in cell proliferation assay, cell line EoL-1 (FIP1L1-PDGFRA)): 2.68 µM; IC50 (Homo sapiens, FaDu, read-out: IC50 in cell proliferation assay, cell line FaDu): 2.63 µM; IC50 (Homo sapiens, G-361, read-out: IC50 in cell proliferation assay, cell line G-361 (BRAF p.V600E)): 0.047 µM; IC50 (Homo sapiens, HCC827, read-out: IC50 in cell proliferation assay, cell line HCC827 (EGFR exon19del)): 1.27 µM; IC50 (Homo sapiens, HCC4006, read-out: IC50 in cell proliferation assay, cell line HCC4006 (EGFR exon19del)): > 10 µM; IC50 (Homo sapiens, HCT-15, read-out: IC50 in cell proliferation assay, cell line HCT 15): 1.52 µM; IC50 (Homo sapiens, HCT-116, read-out: IC50 in cell proliferation assay, cell line HCT 116): 1.11 µM; IC50 (Homo sapiens, HEC-1, read-out: IC50 in cell proliferation assay, HEC-1 cell line): 1.26 µM; IC50 (Homo sapiens, HEC-1B, read-out: IC50 in cell proliferation assay, HEC-1-B cell line (EGFR p.A864V)): > 10 µM; IC50 (Homo sapiens, HL-60, read-out: IC50 in cell proliferation assay, HL-60 cell line): > 10 µM; IC50 (Homo sapiens, HT, read-out: IC50 in cell proliferation assay, HT cell line): > 10 µM; IC50 (Homo sapiens, HT-1080, read-out: IC50 in cell proliferation assay, HT-1080 cell line): 0.971 µM; IC50 (Homo sapiens, Hs746T, read-out: IC50 in cell proliferation assay, Hs 746.T cell line (MET exon14skip + amplification)): > 10 µM; IC50 (Homo sapiens, Hs-578T, read-out: IC50 in cell proliferation assay, Hs 578T cell line): 1.11 µM; IC50 (Homo sapiens, HuTu80, read-out: IC50 in cell proliferation assay, HuTu 80 cell line): 2.99 µM; IC50 (Homo sapiens, J82, read-out: IC50 in cell proliferation assay, J82 cell line): > 10 µM; IC50 (Homo sapiens, Jurkat E6.1, read-out: IC50 in cell proliferation assay, Jurkat E6.1 cell line): 1.3 µM; IC50 (Homo sapiens, K562, read-out: IC50 in cell proliferation assay, K-562 cell line): > 10 µM; IC50 (Homo sapiens, KATO III, read-out: IC50 in cell proliferation assay, KATO III cell line (FGFR2 amplification)): 1.77 µM; IC50 (Homo sapiens, KG-1, read-out: IC50 in cell proliferation assay, KG-1 cell line (FGFR1OP2-FGFR1)): 1.21 µM; IC50 (Homo sapiens, KLE, read-out: IC50 in cell proliferation assay, KLE cell line): 1.56 µM; IC50 (Homo sapiens, KMS-11, read-out: IC50 in cell proliferation assay, KMS-11 cell line (FGFR3 p.Y373C)): > 10 µM; IC50 (Homo sapiens, KU812, read-out: IC50 in cell proliferation assay, Ku812 cell line): 8.65 µM; IC50 (Homo sapiens, Kasumi 1, read-out: IC50 in cell proliferation assay, Kasumi-1 cell line (KIT p.N822K)): 9.05 µM; IC50 (Homo sapiens, LC-2-ad, read-out: IC50 in cell proliferation assay, LC-2/ad cell line (CCDC6-RET)): 2.07 µM; IC50 (Homo sapiens, LNCaP-Clone-FGC, read-out: IC50 in cell proliferation assay, LNCaP clone FGC cell line): 2.73 µM; IC50 (Homo sapiens, LS174T, read-out: IC50 in cell proliferation assay, LS174T cell line): > 10 µM; IC50 (Homo sapiens, LS-411N, read-out: IC50 in cell proliferation assay, LS411N cell line (BRAF p.V600E)): 0.022 µM; IC50 (Homo sapiens, LoVo, read-out: IC50 in cell proliferation assay, LoVo cell line): 4.36 µM; IC50 (Homo sapiens, MCF7, read-out: IC50 in cell proliferation assay, MCF-7 cell line): > 10 µM; IC50 (Homo sapiens, MDA-MB-231, read-out: IC50 in cell proliferation assay, MDA-MB-231 cell line): > 10 µM; IC50 (Homo sapiens, MDA-MB-453, read-out: IC50 in cell proliferation assay, MDA-MB-453 cell line): > 10 µM; IC50 (Homo sapiens, MDA-MB-468, read-out: IC50 in cell proliferation assay, MDA-MB-468 cell line): > 10 µM; IC50 (Homo sapiens, MG-63, read-out: IC50 in cell proliferation assay, MG-63 cell line): > 10 µM; IC50 (Homo sapiens, MIA PaCa-2, read-out: IC50 in cell proliferation assay, MIA PaCa-2 cell line): > 10 µM; IC50 (Homo sapiens, MKN-45, read-out: IC50 in cell proliferation assay, MKN45 cell line (MET amplification)): > 10 µM; IC50 (Homo sapiens, MOLM-13, read-out: IC50 in cell proliferation assay, MOLM-13 cell line (FLT3 ITD)): 5.7 µM; IC50 (Homo sapiens, MOLT-4, read-out: IC50 in cell proliferation assay, MOLT-4 cell line): > 10 µM
